Test results: patent US8084465B2, “Derivatives of pryidone and use thereof” (Shanghai Genomics, Inc., priority 2003, dated 2011)

Experiments:
[1] = test system: rat liver fibrosis model induced by CCl4; experiment: Rat liver fibrosis model induced by CCl4, liver pathology; type: in vivo; details: 4 weeks, 250 mg/Kg intragastrically once per day, model group S4-S6, P=0.001
Procedure: (§1) A rat liver fibrosis model was established by induction with CCl4 and DMN (dimethyl nitrosamine)) respectively, and treated with F351 for 4 weeks, 8 weeks. The livers of the animal were harvested to observe the pathologic results. The method was as follows:
(§2) (a) Generating a carbon tetrachloride model (injected intraperitoneally with 40% CCl4 mixed with oil, 0.4 ml/100 g, twice per week, for 4 continuous weeks) and a dimethyl nitrosamine liver fibrosis model (injected intraperitoneally with 1% DMN, 10 mg/Kg, twice per week, for 8 continuous weeks).
(§3) (b) The animals of these two models were intragastrically administered with F351 from the 0 day of the model establishment, with the dose at 250 mg/Kg, once per day, for 4 or 8 continuous weeks.

[2] = test system: liver fibrosis model induced by DMN; experiment: Mortality of rats in the DMN liver fibrosis model; type: in vivo, rat
Procedure: as §2, §3
(§4) The rat liver fibrosis models established by induction with CCl4 and DMN were treated with F351 in the same manner in Example 3. The body weight and mortality of the rates were observed.

[3] = test system: rat with liver fibrosis induced by DMN; experiment: Serum transaminase (ALT) level in the DMN liver fibrosis model; type: in vivo; details: DMN model + F351, week 4; DMN model group 74±18.25, control group 27±5.09; P<0.05
Procedure: as §2, §3
(§5) The rat liver fibrosis models established by induction with CCl4 and DMN were treated with F351 in the same manner in Example 3. The serum of the rats was extracted and the level of the serum transaminase was measured.

[4] = test system: rat liver fibrosis model induced by DMN (dimethyl nitrosamine); experiment: Rat liver fibrosis model induced by DMN, liver pathology; type: in vivo
Procedure: as §1, §2, §3

fibroblast = experiment: MTT assay, proliferation of fibroblast cultured in vitro; type: cell-based
Procedure: The inhibitory effect of F351 on the proliferation of fibroblast cultured in vitro was tested using the following method. F351 was dissolved in 0.5% DMSO. The fibroblast was treated with F351 of different amount (FIG. 1 and FIG. 2) for 5 days. The agent was refreshed once every 48 hrs. Pirfenidone was used in parallel experiments in order to compare the effects of these two agents.
MTT assay: […] cell suspension was added into each well of a 96-well plate, 4 parallel wells per group. The concentration of the agent and the culture time remained unchanged. Then 10 μL 5 g/L MTT (3-(4,5-dimethylthiazol-2-yl)-2,5-diphenyltetrazolium bromide) was added to each well for another 4 hrs of culture. 100 uL DMSO was added to each well. Gently vortex to make a uniform mixture. After about 10 mins, OD values at 570 nm and 630 nm were measured by an enzyme linked immune detector (BIO RAD 550). The cell viability rate was calculated in accordance with the following formula: Viability rate=[(experimental well OD570−experimental well OD630)/(control well OD570−control well OD630)]×100% Inhibition rate (or proliferation rate)=100%−viability rate

[5] = test system: liver fibrosis model induced by CCl4; experiment: Mortality of rats in the CCl4 liver fibrosis model; type: in vivo; details: 250 mg/Kg once per day
Procedure: as §2, §3, §4

[6] = test system: rat with liver fibrosis induced by CCl4; experiment: Serum transaminase (ALT) level in the CCl4 liver fibrosis model; type: in vivo; details: CCl4 model + F351, week 4; CCl4 model group 52±17.15, control group 27±5.09; P<0.05
Procedure: as §2, §3, §5

SMILES: Cc1ccc(=O)n(-c2ccc(O)cc2)c1 [F351, 5-methyl-1-(4-hydroxylphenyl)-2-(1H)-pyridone]
- pathologic changes (fibrosis dimension around the central veins and the sinus) [1]: obviously reduced
- rats survived ([2]; week 4, 250 mg/Kg once per day, control group 7 of 25 rats survived): 24
- rats survived ([2]; week 8, 250 mg/Kg once per day, control group 2 of 25 rats survived): 18
- ALT serum level [3]: 54±17.25
- liver lesion (hepatocyte necrosis, hemorrhage, collagen deposition, fibrosis) ([4]; week 4, 250 mg/Kg intragastrically once per day, versus model group, P<0.001): significantly reduced
- fibrosis around the sinus (pathologic results) ([4]; week 8, 250 mg/Kg intragastrically once per day, versus control group): obviously better than the control group
- activity for inhibiting the fibroblast viability (fibroblast; FIG. 2, versus Pirfenidone control): higher than that of the Pirfenidone control
- inhibitory effect on the fibroblast (fibroblast; MTT assay, treated for 5 days, compared with Pirfenidone in parallel, FIG. 1 and FIG. 2): more significant than that of Pirfenidone
- mortality of the rats [5]: did not increase the mortality
- ALT serum level [6]: 45±17.68
